Paper PMC5974779, “Prediction of Drug-Induced Hepatotoxicity Using Long-Term Stable Primary Hepatic 3D Spheroid Cultures in Chemically Defined Conditions” (Toxicological Sciences, 2018)
Like-named read-outs stand apart in the source and are kept apart here.

How the values were obtained:
patients = settings: phase I clinical trial, ref McKenzie et al., 1995, cited from earlier work
[1] = therapeutic total cmax; ref PMID; cited from earlier work
[2] = cited from earlier work; for Extent of hepatic metabolism: ref DrugBank and Prescribers' Digital Reference database
[3] = tested on: rat, mouse, dog, and cynomolgus monkey; set-up: method as in Manning and Swartz, 1995; settings: ref Manning and Swartz, 1995; cited from earlier work
clinical DILI in man = settings: cited from earlier work; for FDA (Severity): FDA drug labeling DILI concern
[4] = tested on: primary human hepatocytes (PHH) 3D spheroids
[5] = tested on: PHH spheroids (hanging-drop); settings: PHH hanging-drop spheroids, 100x Cmax; ref Proctor 2017; cited from earlier work
PHH 2D sandwich cultures = settings: cited from earlier work; for 2Dsw (Xu 2008) 100x: PHH 2D sandwich cultures, 100x Cmax, ref Xu 2008
rats = tested on: rats; set-up: method as in McGill et al., 2012b; settings: in vivo; ref McGill et al., 2012b; cited from earlier work
[6] = Animal hepatocyte spheroid hepatotoxicity (ATP viability, 14 days), minipig; format: cell-based, Gottingen minipig; settings: Gottingen, primary minipig hepatocyte 3D spheroids; minipig spheroids, no indication of hepatotoxicity
[7] = tested on: CD1 mouse primary hepatocyte 3D spheroids; assay: Animal hepatocyte spheroid hepatotoxicity (ATP viability, 14 days), CD1 mouse; format: cell-based
[8] = tested on: Wistar rat primary hepatocyte 3D spheroids; assay: Animal hepatocyte spheroid hepatotoxicity (ATP viability, 14 days), Wistar rat; format: cell-based
[9] = tested on: C57BL/6 mouse primary hepatocyte 3D spheroids; assay: Animal hepatocyte spheroid hepatotoxicity (ATP viability, 14 days), C57BL/6 (BL6) mouse; format: cell-based
[10] = tested on: rhesus monkey primary hepatocyte 3D spheroids; assay: Animal hepatocyte spheroid hepatotoxicity (ATP viability, 14 days), rhesus monkey; format: cell-based
in vitro = settings: human
[11] = tested on: Gottingen minipig primary hepatocyte 3D spheroids; assay: Animal hepatocyte spheroid hepatotoxicity (ATP viability, 14 days), minipig; format: cell-based; settings: minipig hepatocyte spheroids, 1×, 5×, 20× human cmax, 14 days
[12] = DILI classification score, ref Suzuki et al. (2010)
[13] = FDA drug labeling DILI score, ref Chen et al., 2011
[14] = clinical DILI classification in man (POS/NEG)
[15] = clinical DILI classification used in this study, Supplementary Table 2, ref Chen et al., 2011, Guo et al., 2005, O'Brien et al., 2006, Sakatis et al., 2012, Suzuki et al., 2010, Xu et al., 2008
[16] = clinical DILI classification, Supplementary Table 1, ref Chen et al., 2011, Guo et al., 2005, O'Brien et al., 2006, Sakatis et al., 2012, Suzuki et al., 2010, Xu et al., 2008
[17] = reported pattern of liver damage, Supplementary Table 2, ref literature
[18] = human liver, ref Yoon et al., 2016

In the case of O=c1[nH]c(=O)n([C@@H]2O[C@H](CO)[C@@H](O)[C@@H]2F)cc1I [Fialuridine], the “volunteers with lactic acidosis and acute liver failure” value (patients; few weeks after commencing therapy) is listed as 7 out of 15, the volunteers who died (patients; of the 7 with acute liver failure) is listed as 5 and the Cmax [1] is listed as 640 nM. The “Extent of hepatic metabolism” value [2] was “Minimal”, the “indications of hepatotoxicity in preclinical species” value [3] was “did not show indications of hepatotoxicity” and the “Suzuki et al. (2010)” value (clinical DILI in man; [12]) was 2. For the same compound, the “FDA (Severity)” value (clinical DILI in man; ref Chen et al., 2011) was “most DILI concern”, the “FDA (0-8)” value (clinical DILI in man; [13]) was “Discontinued” and the DILI in vivo (clinical DILI in man; [14]) was “POS”. For the same compound, the Classified as (clinical DILI in man; [15]) was “POS”, the DILI in vivo (clinical DILI in man; [16]) was “POS” and the “O'Brien et al. (2003)” value (clinical DILI in man; clinical hepatotoxicity classification, ref O'Brien et al. (2003)) was “Severely”. For the same compound, the “Type of DILI” value (clinical DILI in man; [17]) was “Hepatocellular injury, Cholestatic injury or Mixed hepatitis”, the “Chemically defined spheroids (this study) 20x” value (“Chemically defined spheroids” below) [4] was “Positive” and the “hepatotoxicity evaluation in CD-spheroids” value [4] was “successfully detect fialuridine hepatotoxicity at clinically relevant concentrations”.

In the case of CC(=O)Nc1ccc(O)cc1 [Acetaminophen], the “Hanging-drop spheroids (Proctor 2017) 100x” value [5] is given as “Positive”, the “2Dsw (Xu 2008) 100x” value (PHH 2D sandwich cultures) is given as “Positive” and the “acetaminophen-induced hepatotoxicity in rats” value (rats) is given as “resistant to acetaminophen-induced hepatotoxicity”. For the same compound, the “fraction inactivated by sulfation or glucuronidation” value [2, 18] was “around 90%”, the “fraction metabolically activated by CYP2E1 and CYP3A4 to NAPQI” value [2, 18] was 5%–10% and the “Extent of hepatic metabolism” value [2] was “Extensive”.

In the case of Cc1ccc(-c2cc(C(F)(F)F)nn2-c2ccc(S(N)(=O)=O)cc2)cc1 [Celecoxib], the viability at 14 days [6] is given as greater than 100%, the viability ([7]; CD1 mouse spheroids, 20× cmax) is given as < 2 % of respective controls and the Cmax [1] is given as 2550 nM. For the same compound, the viability ([8]; rat spheroids, 20× cmax) was < 2 % of respective controls, the viability ([9]; C57BL/6 mouse spheroids, 20× cmax) was < 2 % of respective controls and the “Extent of hepatic metabolism” value [2] was “Extensive”. The viability ([10]; monkey spheroids, 20× cmax) was < 2 % of respective controls, the Classified as (clinical DILI in man; in vivo) was “POS” and the “Clinical DILI class (panel heading of Figure 4)” value (clinical DILI in man; in vivo) was “High DILI concern”. For the same compound, the DILI in vivo (clinical DILI in man; in vivo) was “POS”, the “FDA (0-8)” value (clinical DILI in man; in vivo) was 3 and the “Suzuki et al. (2010)” value (clinical DILI in man; in vivo) was 1. For the same compound, the “Type of DILI” value (clinical DILI in man; in vivo) was “Hepatocellular injury or Cholestatic injury”, the viability at 14 days, 20 × cmax (in vitro) was less than 2% and the “Chemically defined spheroids” value [4] was “Positive”.

In the case of CC(C)C(=O)Nc1ccc([N+](=O)[O-])c(C(F)(F)F)c1 [Flutamide], the “hepatotoxicity evaluation in spheroids” value [11] is listed as “flagged as hepatotoxic”, the “Hanging-drop spheroids (Proctor 2017) 100x” value [5] is listed as “Positive” and the “hepatotoxicity evaluation in spheroids” value ([7]; CD1 mouse hepatocyte spheroids, 1×, 5×, 20× human cmax, 14 days) is listed as “flagged as hepatotoxic”. The “hepatotoxicity detection in 2D sandwich cultures of PHH” value (PHH 2D sandwich cultures; 100× cmax, 24 h, high content imaging, ref Xu et al., 2008) was “liver toxicity was not recognized”, the “2Dsw (Xu 2008) 100x” value (PHH 2D sandwich cultures) was “Negative” and the Cmax [1] was 5430 nM. For the same compound, the “hepatotoxicity evaluation in spheroids” value ([8]; Wistar rat hepatocyte spheroids, 1×, 5×, 20× human cmax, 14 days) was “flagged as hepatotoxic”, the “hepatotoxicity evaluation in spheroids” value ([9]; C57BL/6 mouse hepatocyte spheroids, 1×, 5×, 20× human cmax, 14 days) was “flagged as hepatotoxic” and the “Extent of hepatic metabolism” value [2] was “Extensive”. For the same compound, the “hepatotoxicity evaluation in spheroids” value ([10]; rhesus monkey hepatocyte spheroids, 1×, 5×, 20× human cmax, 14 days) was “flagged as hepatotoxic”, the “Guo et al. (2005)” value (clinical DILI in man; DILI classification score, ref Guo et al. (2005)) was 3 and the “Suzuki et al. (2010)” value (clinical DILI in man; [12]) was 2. The “FDA (Severity)” value (clinical DILI in man; ref Chen et al., 2011) was “most DILI concern”, the “FDA (0-8)” value (clinical DILI in man; [13]) was 8 and the DILI in vivo (clinical DILI in man; [14]) was “POS”. For the same compound, the Classified as (clinical DILI in man; [15]) was “POS”, the DILI in vivo (clinical DILI in man; [16]) was “POS” and the “Xu et al. (2008)” value (clinical DILI in man; clinical DILI classification, ref Xu et al. (2008)) was “Positive”. For the same compound, the “O'Brien et al. (2003)” value (clinical DILI in man; in vivo) was “Severely”, the “Sakatis et al. (2012)” value (clinical DILI in man; in vivo) was “Hepatotoxic” and the “Type of DILI” value (clinical DILI in man; [17]) was “Hepatocellular injury, Cholestatic injury or Mixed hepatitis”. For the same compound, the “Chemically defined spheroids” value [4] was “Positive”.
